Experimental data from US20120258980A1, “Antibacterial Agent for Drug-Resistant Bacteria, Method for Screening for Same, and Use of Same” (priority 2009, published 2012).
Converted amounts (≈) assume the structure as drawn. Where two headings read alike, the source gives them in different places.

Assays:
[1] = test system: VRSA clinical isolates; assay: microbe, parasite or virus in culture; type: cell-based; settings: Staphylococcus aureus
Procedure, shortened: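 Strains were grown overnight at 37° C in TSB, adjusted in CAMHB to 0.3 absorbance at 578 nm and diluted 500-fold before equal-volume addition to compound dilutions.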

[2] = test system: methicillin-susceptible S. aureus (MSSA), MRSA and mutants thereof; assay: MIC measurement, Test Example 3 (MSSA, MRSA and sequential gyrA/grlA quinolone-resistant mutants); type: cell-based, Staphylococcus aureus; settings: Staphylococcus aureus
Procedure, shortened: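 Broth microdilution in cation-adjusted Mueller Hinton broth: inoculum from overnight TSB cultures set to A578 0.3, then 500-fold diluted and added 1:1 to serial compound concentrations.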

[3] = test system: MRSA, CA-MRSA and MSSA of Staphylococcus aureus; assay: MIC measurement, Test Example 4 (MRSA, CA-MRSA and MSSA strains); type: cell-based; settings: Staphylococcus aureus
Procedure, shortened: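 S. aureus strains (FDA209P control) grown overnight in TSB at 37° C, resuspended in CAMHB, adjusted to A578 0.3 and diluted 500-fold. Equal volume added to CAMHB with serial compound concentrations, incubated statically overnight at 37° C. MIC read visually as lowest concentration without turbidity.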

[4] = test system: Enterococcus faecalis; assay: MIC measurement, Test Example 6 (enterococcus); type: cell-based; settings: Enterococcus faecalis, read-out: MIC
Procedure, shortened: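 Broth microdilution in cation-adjusted Mueller Hinton: inoculum from overnight TSB cultures adjusted to absorbance 0.3 at 578 nm and diluted 500×. Compounds at various concentrations; static 37° C overnight incubation. MIC = lowest concentration without visible turbidity; strains include two vancomycin-resistant NCTC isolates.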

[5] = ATCC 29213 / MRSA / MSSA, ATCC 29213, MSSA
[6] = FDA209P / MRSA / MSSA, FDA209P, MSSA
[7] = MRSA / MSSA / NCTC 8325, NCTC 8325, MSSA
[8] = MRSA / MSSA / USA300, USA300 FPR3757, CA-MRSA
[9] = E. faecalis 36-15672, quinolone-susceptible enterococci
[10] = E. faecalis 36-15673, quinolone-susceptible enterococci
[11] = E. faecalis 36-15678, quinolone-susceptible enterococci
[12] = E. faecalis 36-15686, quinolone-resistant enterococci
[13] = E. faecalis 36-15688, quinolone-susceptible enterococci
[14] = E. faecalis 36-15694, quinolone-resistant enterococci
[15] = E. faecalis 36-15696, quinolone-susceptible enterococci
[16] = E. faecalis 36-15703, quinolone-resistant enterococci
[17] = E. faecalis 36-15716, quinolone-resistant enterococci
[18] = E. faecalis 36-15718, quinolone-susceptible enterococci
[19] = E. faecalis 36-15720, quinolone-susceptible enterococci
[20] = E. faecalis 36-15722, quinolone-resistant enterococci
[21] = E. faecalis 36-15726, quinolone-resistant enterococci
[22] = E. faecalis 36-15730, quinolone-susceptible enterococci
[23] = E. faecalis 36-15736, quinolone-susceptible enterococci
[24] = E. faecalis 36-15741, quinolone-susceptible enterococci
[25] = NCTC 12201 / VRE, E. faecalis NCTC12201, vancomycin-resistant (VRE), quinolone-susceptible enterococci
[26] = NCTC 12203 / VRE, E. faecalis NCTC12203, vancomycin-resistant (VRE), quinolone-susceptible enterococci

SMILES: CCn1cc(C(=O)O)c(=O)c2cc(F)c(N3CCNCC3)cc21 [NFLX, norfloxacin]
- MIC ([1]; VRS1, VRSA, Michigan): > 128 µg/mL
- MIC ([1]; VRS2, VRSA, Pennsylvania): > 128 µg/mL
- MIC ([1]; VRS3, VRSA, New York): 128 µg/mL (≈ 401 µM)
- MIC ([1]; VRS4, VRSA, New York): 128 µg/mL (≈ 401 µM)
- MIC ([1]; VRS5, VRSA, Michigan): > 128 µg/mL
- MIC ([1]; VRS6, VRSA, Michigan): > 128 µg/mL
- MIC ([1]; VRS7, VRSA, Michigan): > 128 µg/mL
- MIC ([2]; MR5867-2, second-step mutant, further gyrA S84L): 64 µg/mL (≈ 200 µM)
- MIC ([2]; MR5867-3, third-step mutant, further grlA S80F): > 128 µg/mL
- MIC ([2]; MR5867-4, fourth-step mutant, further gyrA E88K): > 128 µg/mL
- MIC [3, 5]: 1 µg/mL (≈ 3.13 µM)
- MIC ([3]; COL, MRSA): 1 µg/mL (≈ 3.13 µM)
- MIC [3, 6]: 0.25 µg/mL (≈ 0.783 µM)
- MIC ([3]; ISA12-1, MRSA): 1 µg/mL (≈ 3.13 µM)
- MIC ([3]; ISA12-2, MRSA): 1 µg/mL (≈ 3.13 µM)
- MIC ([3]; ISA35-1, MRSA): 16 µg/mL (≈ 50.1 µM)
- MIC ([3]; ISA37-1, MSSA): 1 µg/mL (≈ 3.13 µM)
- MIC ([3]; ISA49-1, MSSA): 1 µg/mL (≈ 3.13 µM)
- MIC ([3]; ISA51-1, MSSA): 0.5 µg/mL (≈ 1.57 µM)
- MIC ([3]; ISA56-3, MRSA): 0.25 µg/mL (≈ 0.783 µM)
- MIC ([3]; ISA58-1, MRSA): 1 µg/mL (≈ 3.13 µM)
- MIC ([3]; ISA62-1, MRSA): 1 µg/mL (≈ 3.13 µM)
- MIC ([3]; ISA73-1, MSSA): 1 µg/mL (≈ 3.13 µM)
- MIC ([3]; KBSA32, MRSA): 0.5 µg/mL (≈ 1.57 µM)
- MIC ([3]; KBSA34, MRSA): 1 µg/mL (≈ 3.13 µM)
- MIC ([3]; KBSA72, MRSA): > 128 µg/mL
- MIC ([3]; KBSA96, MRSA): 128 µg/mL (≈ 401 µM)
- MIC ([3]; KBSA171, MRSA): > 128 µg/mL
- MIC ([3]; KSA24, MRSA): 128 µg/mL (≈ 401 µM)
- MIC ([3]; KSA31, MRSA): 32 µg/mL (≈ 100 µM)
- MIC ([3]; KSA36, MRSA): > 128 µg/mL
- MIC [3, 7]: 1 µg/mL (≈ 3.13 µM)
- MIC [3, 8]: 32 µg/mL (≈ 100 µM)
- MIC ([3]; MW2, CA-MRSA): 0.5 µg/mL (≈ 1.57 µM)
- MIC ([3]; N315, MRSA): 1 µg/mL (≈ 3.13 µM)
- MIC [4, 9]: 4 µg/mL (≈ 12.5 µM)
- MIC [4, 10]: 4 µg/mL (≈ 12.5 µM)
- MIC [4, 11]: 4 µg/mL (≈ 12.5 µM)
- MIC [4, 12]: > 128 µg/mL
- MIC [4, 13]: 2 µg/mL (≈ 6.26 µM)
- MIC [4, 14]: > 128 µg/mL
- MIC [4, 15]: 4 µg/mL (≈ 12.5 µM)
- MIC [4, 16]: 64 µg/mL (≈ 200 µM)
- MIC [4, 17]: > 128 µg/mL
- MIC [4, 18]: 4 µg/mL (≈ 12.5 µM)
- MIC [4, 19]: 8 µg/mL (≈ 25.1 µM)
- MIC [4, 20]: 128 µg/mL (≈ 401 µM)
- MIC [4, 21]: 128 µg/mL (≈ 401 µM)
- MIC [4, 22]: 8 µg/mL (≈ 25.1 µM)
- MIC [4, 23]: 4 µg/mL (≈ 12.5 µM)
- MIC [4, 24]: 4 µg/mL (≈ 12.5 µM)
- MIC [4, 25]: 2 µg/mL (≈ 6.26 µM)
- MIC [4, 26]: 2 µg/mL (≈ 6.26 µM)

SMILES: C[C@@H]1CN(c2c(F)c(N)c3c(=O)c(C(=O)O)cn(C4CC4)c3c2F)C[C@H](C)N1 [SPFX, sparfloxacin]
- MIC ([1]; VRS1, VRSA, Michigan): 8 µg/mL (≈ 20.4 µM)
- MIC ([1]; VRS2, VRSA, Pennsylvania): 8 µg/mL (≈ 20.4 µM)
- MIC ([1]; VRS3, VRSA, New York): 16 µg/mL (≈ 40.8 µM)
- MIC ([1]; VRS4, VRSA, New York): 16 µg/mL (≈ 40.8 µM)
- MIC ([1]; VRS5, VRSA, Michigan): 128 µg/mL (≈ 326 µM)
- MIC ([1]; VRS6, VRSA, Michigan): 16 µg/mL (≈ 40.8 µM)
- MIC ([1]; VRS7, VRSA, Michigan): 16 µg/mL (≈ 40.8 µM)
- MIC ([2]; FDA209P / MRSA / MSSA, FDA209P (MSSA), control, read-out: MIC): ≤ 0.063 µg/mL
- MIC ([2]; MR5867 (MRSA), clinical isolate parent strain, no mutation): ≤ 0.063 µg/mL
- MIC ([2]; MR5867-1, first-step quinolone-resistant mutant, grlA E84K): ≤ 0.063 µg/mL
- MIC ([2]; MS5935 (MSSA), clinical isolate parent strain, no mutation, read-out: MIC): ≤ 0.063 µg/mL
- MIC ([2]; MS5935-1, first-step quinolone-resistant mutant, grlA S80F): ≤ 0.063 µg/mL
- MIC ([2]; MS5935-3, third-step mutant, further grlA E84K): 32 µg/mL (≈ 81.5 µM)
- MIC ([2]; MS5952 (MSSA), clinical isolate parent strain, no mutation, read-out: MIC): ≤ 0.063 µg/mL
- MIC [3, 5]: ≤ 0.063 µg/mL
- MIC ([3]; COL, MRSA): 0.25 µg/mL (≈ 0.637 µM)
- MIC [3, 6]: ≤ 0.063 µg/mL
- MIC ([3]; ISA12-1, MRSA): 0.125 µg/mL (≈ 0.319 µM)
- MIC ([3]; ISA12-2, MRSA): 0.125 µg/mL (≈ 0.319 µM)
- MIC ([3]; ISA35-1, MRSA): 0.125 µg/mL (≈ 0.319 µM)
- MIC ([3]; ISA37-1, MSSA): 0.125 µg/mL (≈ 0.319 µM)
- MIC ([3]; ISA49-1, MSSA): ≤ 0.063 µg/mL
- MIC ([3]; ISA51-1, MSSA): 0.125 µg/mL (≈ 0.319 µM)
- MIC ([3]; ISA56-3, MRSA): 0.125 µg/mL (≈ 0.319 µM)
- MIC ([3]; ISA58-1, MRSA): 0.5 µg/mL (≈ 1.27 µM)
- MIC ([3]; ISA62-1, MRSA): ≤ 0.063 µg/mL
- MIC ([3]; ISA73-1, MSSA): ≤ 0.063 µg/mL
- MIC ([3]; KBSA32, MRSA): ≤ 0.063 µg/mL
- MIC ([3]; KBSA34, MRSA): 0.125 µg/mL (≈ 0.319 µM)
- MIC ([3]; KBSA72, MRSA): 128 µg/mL (≈ 326 µM)
- MIC ([3]; KBSA96, MRSA): 16 µg/mL (≈ 40.8 µM)
- MIC ([3]; KBSA171, MRSA): 16 µg/mL (≈ 40.8 µM)
- MIC ([3]; KSA24, MRSA): 16 µg/mL (≈ 40.8 µM)
- MIC ([3]; KSA31, MRSA): 8 µg/mL (≈ 20.4 µM)
- MIC ([3]; KSA36, MRSA): 128 µg/mL (≈ 326 µM)
- MIC [3, 7]: 0.125 µg/mL (≈ 0.319 µM)
- MIC [3, 8]: 8 µg/mL (≈ 20.4 µM)
- MIC ([3]; MW2, CA-MRSA): ≤ 0.063 µg/mL
- MIC ([3]; N315, MRSA): ≤ 0.063 µg/mL
- MIC [4, 9]: 1 µg/mL (≈ 2.55 µM)
- MIC [4, 10]: 1 µg/mL (≈ 2.55 µM)
- MIC [4, 11]: 0.5 µg/mL (≈ 1.27 µM)
- MIC [4, 12]: 128 µg/mL (≈ 326 µM)
- MIC [4, 13]: 0.5 µg/mL (≈ 1.27 µM)
- MIC [4, 14]: 64 µg/mL (≈ 163 µM)
- MIC [4, 15]: 0.5 µg/mL (≈ 1.27 µM)
- MIC [4, 16]: 32 µg/mL (≈ 81.5 µM)
- MIC [4, 17]: 64 µg/mL (≈ 163 µM)
- MIC [4, 18]: 0.5 µg/mL (≈ 1.27 µM)
- MIC [4, 19]: 1 µg/mL (≈ 2.55 µM)
- MIC [4, 20]: 64 µg/mL (≈ 163 µM)
- MIC [4, 21]: 64 µg/mL (≈ 163 µM)
- MIC [4, 22]: 1 µg/mL (≈ 2.55 µM)
- MIC [4, 23]: 0.5 µg/mL (≈ 1.27 µM)
- MIC [4, 24]: 1 µg/mL (≈ 2.55 µM)
- MIC [4, 25]: 0.5 µg/mL (≈ 1.27 µM)
- MIC [4, 26]: 0.5 µg/mL (≈ 1.27 µM)
